Measurements reported in article PMC8226722, “Comparison of Solution Chemical Properties and Biological Activity of Ruthenium Complexes of Selected β-Diketone, 8-Hydroxyquinoline and Pyrithione Ligands” (Pharmaceuticals, 2021).

How the values were obtained:
[1] = molecular target: ABCB1 (P-glycoprotein) efflux pump (Homo sapiens, UniProt P08183); assay: Rhodamine 123 uptake/retention fluorescence assay (flow cytometry) in Colo 320 cells
Protocol: It is important to note, that the resistance of this cell line is primarily mediated by the overexpression of the ABC-transporter P-glycoprotein, which pumps out xenobiotics from the cytosol. […] This dye is membrane-permeable and is rapidly taken up by the cells; therefore, it can be effectively used for the screening of efflux pump inhibiting compounds. […] Then the fluorescence accumulation ratios (FAR) were calculated (Figure 1) according to the equation given in the Materials and Methods section. Verapamil was used as a reference inhibitor compound.
This fluorescence-based detection system uses verapamil (a first-generation, competitive EPI) as reference inhibitor. […] The tested compounds were added at different concentrations (2 and 20 µM; from 1 and 10 mM stock solutions, respectively) and the samples were incubated for 10 min at room temperature.
The parameters evaluated from flow cytometric experiments are forward scatter count (FSC, provides information about cell size); side scatter count (SSC, proportional to cell granularity or internal complexity); mean fluorescence of the cells (FL-1) and the computed FAR and FAR quotients (Table S1).

[2] = Solution stability and speciation (UV-vis, 1H-NMR, pH-potentiometry); details: for logK formation constant: suggested on the basis of pH-potentiometric data; for pH-dependent stability, UV-vis spectra: pH range 2–11, 24 h
Protocol: In order to confirm our prediction, time-dependent UV-visible (UV-vis) spectra were recorded for complexes 5–8 at pH 7.4 in aqueous solution (in modified phosphate buffered saline (PBS) buffer—PBS’) and in Eagle’s minimum essential medium (EMEM) used for the cytotoxicity studies in the presence of 2% (v/v) dimethyl sulfoxide (DMSO). […] Additionally, ^1H-NMR spectra were recorded for more water-soluble complexes 6–8.
In order to compare the stability of 1 and 3 at physiological pH, a serial dilution was made and UV-vis spectra were recorded in a wide concentration range (10 μM–3 mM) (Figure S10).
Titrations were performed in a carbonate-free KOH solution (0.20 M). The exact concentration of HCl and KOH solutions was determined by pH-potentiometric titrations.
The path length (l) was usually 1 cm, and 2, 5, 20 or 50 mm cells were used occasionally. Equilibrium constants (proton dissociation, stability constants, conditional stability constants (K’7.4) for the formation of mim adducts) and the individual spectra of the species were calculated with the computer program PSEQUAD [55]. The spectrophotometric titrations were performed in aqueous solution of the complexes at 25.0 ± 0.1 °C at an ionic strength of 0.20 M (KCl). Spectrum of the solution of 200 μM complex upon addition of one or two equivalents of its own ligand or phen was also measured at pH 7.4. UV-vis spectra recorded for the complexes as a function of chloride concentrations or PTA (in case of the chlorido complexes) were used to investigate the co-ligand exchange processes at pH 7.4. […] In some cases, the measurements were performed in the presence of 1–2% (Cl^−/PTA exchange reactions) or 6–8% (v/v) (interaction of mim with complexes 2, 4) DMSO.
^1H-NMR stability studies were carried out on a Bruker Avance III HD 500 MHz instrument. All ^1H-NMR spectra were recorded on samples containing 10% (v/v) D2O with the WATERGATE water suppression pulse scheme using DSS internal standard. Stability of complexes 6–8 was checked over time by ^1H-NMR spectroscopy at 500 μM in PBS’ or in EMEM (with 10% (v/v) DMSO-d6).

[3] = UV-vis interaction with 1-methylimidazole, monodentate binding model of HSA; details: pH 7.4, 102 mM chloride
Protocol: In our previous work, the fast interaction of complexes 7 and 8 with thiol-containing low molecular mass endogenous compounds Cys, N-acetylcysteine and glutathione was found on the basis of a mass spectrometry study. The donor atoms generally coordinate at the site of the monodentate co-ligand, however, they can also displace the weakly bound bidentate ligand as well. Herein, interaction of the complexes 1–4 towards 1-methylimidazole (mim), a monodentate binding model of HSA was measured by UV-vis (Figure 7d–f).
The reactions in all cases were very fast (except complex 2 and 4), and the observed spectral changes were similar to those obtained with HSA (Figure 7a–c). There was no indication for the replacement of the bidentate ligand by 1-methylimidazole. Considering that the latter ligand binds at the coordination site of the co-ligand, maximum one complex is able to be bound to 1-methylimidazole. However, the constant spectra upon addition of 1-methylimidazole to the complex 4 could only be reached at high excess of 1-methylimidazole due to its lower tendency to interact with this model (and with HSA as well). Based on these spectral changes, conditional binding constants were calculated for the formation of the 1-methylimidazole adducts. […] The protecting role of PTA in ligand-exchange processes for the complex pair 7 and 8 was also reported regarding their interaction with thiols or protein NCp7 [46, 47].

[4] = Parallel artificial membrane permeability assay (PAMPA); details: for recovery: pH 7.4; for Peff, effective passive permeability: pH 7.4, 100 mM chloride, 5 h
Protocol: Chloride ion concentrations of 4, 24 and 100 mM were chosen according to the chloride content of the nucleus, cytosol and blood serum, respectively. […] Then parallel artificial membrane permeability assay (PAMPA) was used to estimate the ability of the complexes to penetrate membranes by passive diffusion and the effective passive permeability coefficients (Peff) obtained for complexes 1–3 are shown in Table 4 (in case of 4, there are no data due to formation of precipitate).
Distribution coefficients at physiological pH (D7.4) of the complexes were determined by the traditional shake-flask method in n-octanol/buffered aqueous solution at pH 7.40 (20 mM phosphate buffer) at various chloride concentrations and at 25.0 ± 0.2 °C using UV-vis detection as described in our former works [37, 38, 42]. PAMPA was applied for the complexes with a Gentest pre-coated PAMPA Plate System (Corning, Corning, NY, USA) [56]. Briefly, a 96-well filter plate was used as the permeation acceptor and the 96-well bottom plate was used as the permeation donor. For simplicity, PBS was used both as donor and acceptor buffer throughout this study. […] Peff values were calculated according to the equation reported by Yu et al. [57].

Sequence of ABCB1 (P-glycoprotein) efflux pump (P08183 whole entry): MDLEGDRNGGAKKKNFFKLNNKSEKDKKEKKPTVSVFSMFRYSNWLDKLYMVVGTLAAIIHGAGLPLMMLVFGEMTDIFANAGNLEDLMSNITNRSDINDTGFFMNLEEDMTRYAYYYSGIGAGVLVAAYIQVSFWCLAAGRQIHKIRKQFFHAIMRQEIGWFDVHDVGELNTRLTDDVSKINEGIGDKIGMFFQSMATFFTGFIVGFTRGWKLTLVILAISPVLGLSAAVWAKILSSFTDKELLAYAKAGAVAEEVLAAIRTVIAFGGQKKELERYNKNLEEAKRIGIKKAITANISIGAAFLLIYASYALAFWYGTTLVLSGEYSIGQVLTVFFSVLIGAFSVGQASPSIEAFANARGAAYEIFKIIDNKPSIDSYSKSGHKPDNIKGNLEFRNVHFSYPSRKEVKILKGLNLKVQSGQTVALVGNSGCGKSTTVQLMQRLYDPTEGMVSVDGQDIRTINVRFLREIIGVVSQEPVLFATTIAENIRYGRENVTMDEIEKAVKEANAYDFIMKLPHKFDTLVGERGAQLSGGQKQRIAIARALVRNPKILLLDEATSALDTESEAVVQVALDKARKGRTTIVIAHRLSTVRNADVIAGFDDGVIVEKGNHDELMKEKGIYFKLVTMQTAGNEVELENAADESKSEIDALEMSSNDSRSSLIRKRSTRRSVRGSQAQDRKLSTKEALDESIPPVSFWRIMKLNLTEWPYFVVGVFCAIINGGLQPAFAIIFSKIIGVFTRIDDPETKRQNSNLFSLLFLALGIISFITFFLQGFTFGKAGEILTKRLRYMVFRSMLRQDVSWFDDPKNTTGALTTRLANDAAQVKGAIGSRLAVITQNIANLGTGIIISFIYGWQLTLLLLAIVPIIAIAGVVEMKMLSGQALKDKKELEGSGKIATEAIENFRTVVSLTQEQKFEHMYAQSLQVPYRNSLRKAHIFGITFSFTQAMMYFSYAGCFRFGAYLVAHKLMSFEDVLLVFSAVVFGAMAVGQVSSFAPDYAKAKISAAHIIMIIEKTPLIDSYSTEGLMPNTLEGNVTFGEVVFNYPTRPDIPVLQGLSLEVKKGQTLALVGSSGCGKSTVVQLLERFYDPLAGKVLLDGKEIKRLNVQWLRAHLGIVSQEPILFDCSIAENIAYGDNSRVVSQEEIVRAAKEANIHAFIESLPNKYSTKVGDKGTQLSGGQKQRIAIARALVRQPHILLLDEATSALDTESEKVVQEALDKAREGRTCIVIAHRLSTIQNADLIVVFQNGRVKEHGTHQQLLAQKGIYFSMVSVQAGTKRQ

SMILES	FAR fluorescence accumulation ratio ([1]; Colo 320, 2 μM)	FAR quotient (FAR related to that of 20 μM verapamil) ([1]; Colo 320, 2 μM) [%]	FSC forward scatter count ([1]; Colo 320, 2 μM)	SSC side scatter count ([1]; Colo 320, 2 μM)	FAR fluorescence accumulation ratio ([1]; Colo 320, 20 μM)	FAR quotient (FAR related to that of 20 μM verapamil) ([1]; Colo 320, 20 μM) [%]	FSC forward scatter count ([1]; Colo 320, 20 μM)	SSC side scatter count ([1]; Colo 320, 20 μM)	FL-1 mean fluorescence of the cells ([1]; Colo 320, rhodamine 123, 2 μM)	FL-1 mean fluorescence of the cells ([1]; Colo 320, rhodamine 123, 20 μM)	logK formation constant [2]	LogK’ conditional binding constant of 1-methylimidazole adduct [3]	recovery [4] [%]	Peff, effective passive permeability [4] [×10⁻⁶ cm/s]	pH-dependent stability, UV-vis spectra [2]	fraction of unbound Ru(η6-p-cymene) ([2]; 1H-NMR, pH 1.0, 24 h, 200 mM chloride) [%]
Cc1ccc(C(C)C)cc1.O=C(C=C([O-])C(F)(F)F)c1ccc(Cl)cc1.[Cl-].[Ru+2] [complex 7]	1.11	23.1	1988	946	1.31	27.3	1909	900	5.86	6.94	–	–	–	–	–	–
Cc1ccc(C(C)C)cc1.[Cl-].[O-]n1ccc2ccccc2c1=S.[Ru+2] [complex 3]	–	–	–	–	–	–	–	–	–	–	> 8	4.18 ± 0.27	8.1	3.35	–	–
C1N2CN3CN1CP(C2)C3.Cc1ccc(C(C)C)cc1.F[P-](F)(F)(F)(F)F.[O-]n1ccccc1=S.[Ru+2] [complex 2]	1.02	21.3	2034	962	1.02	21.3	2071	1024	5.4	5.41	–	–	15	2.88	stayed unchanged	–
C1N2CN3CN1CP(C2)C3.Cc1ccc(C(C)C)cc1.F[P-](F)(F)(F)(F)F.[O-]n1ccc2ccccc2c1=S.[Ru+2] [complex 4]	0.82	17.0	2014	959	1.70	35.2	1977	973	4.33	8.95	–	3.64 ± 0.02	–	–	stayed unchanged	–
C1N2CN3CN1CP(C2)C3.Cc1ccc(C(C)C)cc1.F[P-](F)(F)(F)(F)F.O=C(C=C([O-])C(F)(F)F)c1ccc(Cl)cc1.[Ru+2] [complex 8]	0.66	13.8	1925	877	1.08	22.4	1950	917	3.51	5.68	–	–	–	–	–	–
Cc1ccc(C(C)C)cc1.[Cl-].[O-]n1ccccc1=S.[Ru+2] [complex 1]	–	–	–	–	–	–	–	–	–	–	> 8	4.16 ± 0.45	1.3	1.13	–	< 3
